Data from US11185077B2, “Attractants for rodents” (priority 2016, dated 2021).

Assays:
[1] = system: house mice, Mus musculus; assay: Laboratory T-tube bioassay: behavioral responses of mice (first choice, time spent); type: in vivo; conditions: female mice
Text: A laboratory experimental apparatus was constructed to test the behavioral responses of mice to the compositions described herein. The experimental design is depicted in FIG. 4 and includes three clear Plexiglas chambers: release chamber (1: 40 cm×20 cm×30 cm for placement of a mouse at the onset of a bioassay), and response chambers (3a and 3b: each 60 cm×30 cm×40 cm) interconnected by a Pyrex glass T-tube (2; stem: 65 cm long, side arms: 45 cm long, all 10 cm in diameter). Each response chamber housed a test stimulus in a Petri dish (4a, 4b; 3 cm diam.). For each replicate, a single mouse was deprived of food, but not water, for 4-6 h before being placed into chamber 1, which was illuminated by dim red light to facilitate observations of the mouse's position. The mouse was allowed to enter the stem of the T-tube (2) on its own accord in response to test stimuli, which were randomly assigned to response chamber 3a or 3b.
Both response chambers were fitted with a Petri dish (4a, 4b) containing a Whatman #1 filter paper disk (25 mm diam.) treated with a randomly assigned treatment stimulus or control stimulus. For each bioassay, a single mouse was tested and the following data were recorded: (1) the treatment or control chamber the mouse entered first with all four paws (“first-choice data”); and (2) the position of the mouse at each of 30 30-sec intervals after its first entry into the T-tube. Position data were then used to calculate the proportion of time a mouse spent in the treatment or control chamber (“time-spent data”).
Following each replicate, the chambers and T-tube were cleaned with a Percept® disinfectant detergent (Virox Technologies Inc. Mississaugua ON L5N 5M4, Canada) and wiped with 70% ethanol.
(§1) First-choice data and the time spent in a trap box quadrant were analyzed using a χ^2 test with Yates' correction for continuity (α=0.05) and the Student's t-test (α=0.05), respectively.
In Experiment 5, the laboratory experimental design of FIG. 4 was used to evaluate the responses of female mice to synthetic androstenone. For Experiment 5, the treatment stimulus consisted of filter paper treated with 4 μg of synthetic androstenone (see Experiments 1 and 2), and the control stimulus consisted of filter paper treated with the 50 μl of ether without androstenone.
In Experiment 6, the laboratory experimental design of FIG. 4 was used to evaluate the responses of male mice to blends of synthetic progesterone and estrogen. For Experiment 6, the treatment stimulus consisted of filter paper treated with a 4-μg blend of the synthetic hormones progesterone and estrogen formulated in 50 μl of ether at a ratio of 100:1 and a control stimulus which consisted of filter paper treated with 50 μl of ether.
In Experiments 9 to 11, the laboratory experimental design of FIG. 4 was used to evaluate the responses of male mice to synthetic progesterone and estrogen. For the Experiments, the treatment stimulus consisted of filter paper treated with a blend of the synthetic progesterone (50 ng) and estrogen (25 ng) (hereinafter “synthetic hormone blend”) (Experiment 9), progesterone alone (75 ng) (Experiment 10) or estrogen alone (75 ng) (Experiment 11) formulated in 50 μl ether. The control stimulus consisted of filter paper treated with 50 μl of ether for each of Experiments 9 to 11.
Experiment 12 used the laboratory experimental apparatus of FIG. 4 to test choices of female mice between filter paper treated with 75 ng of synthetic testosterone (the treatment stimulus) formulated in 50 μl of ether and control filter paper treated with 50 μl of ether. Experiment 13 was identical to Experiment 12 except that the treatment stimulus consisted of filter paper treated with 75 ng of synthetic androstenone.

[2] = system: brown rats, Rattus norvegicus; assay: Laboratory arena with two trap boxes: behavioral responses of rats (first entry, time spent); type: in vivo
Text: A laboratory experimental apparatus was constructed to test the behavioral responses of rats to the compositions described herein. The experimental design is depicted in FIG. 1 and includes a circular galvanized steel arena (200 cm×60 cm) illuminated from above by a 7.5-W red bulb (Halco Lighting Technologies, Norcross, Ga. 30071, USA) to facilitate observations of the position of the rat within the steel arena. Two metal trap boxes (3a, 3b) (each 25 cm×20 cm×12 cm; T. Eaton & Co. Inc., Twinsburg, Ohio 44087, USA) were placed in opposite quadrants of the arena (1) 10 cm from the wall to serve as harborage. Each box (3a, 3b) was fitted with a Petri dish (3 cm) containing a Whatman #1 filter paper disk (25 mm diam; Sigma-Aldrich Canada Co. Oakville, On L6H 6J8) treated with a randomly assigned treatment or control stimulus. Individual rats were released from a gated mesh and sheet metal box (2) (25 cm×15 cm×15 cm) positioned equidistant to each of the two metal trap boxes (3a, 3b).
For each experimental replicate, a single rat was removed from its “home” cage, and placed into the gated mesh- and sheet-metal container (2). After a 10-min acclimation period, the gate was raised, allowing the rat to leave the box (2) on its own accord and to explore the arena (1) and the trap boxes (3a, 3b).
A rat was classed a responder if it entered a trap box (3a, 3b). For each responding rat, two criteria were recorded and analyzed: 1) the trap box (3a, 3b) it entered first (“first entry”), and 2) the time it spent in the arena quadrants associated with a trap box (“time spent”). The latter data were obtained by recording the rat's position in any one of the four arena quadrants at each of 30 1-min intervals. Following each replicate, the arena and trap boxes were cleaned with a Percept™ disinfectant detergent (Virox Technologies Inc. Mississaugua ON L5N 5M4, Canada) and were wiped with a pet urine odor remover (Nature's Miracle®, Spectrum Brands Inc., Blacksburg, Va. 24060-6671, USA).
as §1
In Experiments 1 and 2, the laboratory experimental design of FIG. 1 was used to evaluate the responses of male and female rats to synthetic androstenone. For Experiments 1 and 2, the treatment stimulus consisted of filter paper sprayed with 2 ml of an aqueous microemulsion containing 4 μg of synthetic androstenone and a control stimulus which consisted of untreated filter paper. The treatment stimulus and control stimulus were placed in the trap boxes (3a, 3b). Experiment 1 tested the response of male rats and Experiment 2 tested the response of female rats.
In Experiments 3 and 4, the laboratory experimental design of FIG. 1 was used to evaluate the responses of male and female rats to synthetic progesterone and estrogen. For Experiments 3 and 4, the treatment stimulus consisted of filter paper impregnated with a 4-μg blend of the synthetic hormones progesterone and estrogen formulated in 50 μl of ether at a ratio of either 100:1 (Experiment 3) or 1000:1 (Experiment 4). The control stimulus in each of Experiments 3 and 4 consisted of filter paper impregnated with 50 μl of ether.
Experiment 14 used the laboratory experimental apparatus of FIG. 1 to test choices of female rats between a treatment stimulus consisting of filter paper treated with 150 ng of synthetic testosterone formulated in 50 μl of ether and a control stimulus consisting of filter paper treated with 50 μl of ether.

[3] = Experiment 5, 4 μg synthetic androstenone
[4] = Experiment 13, 75 ng synthetic androstenone
[5] = Experiment 1, male rats, 4 μg synthetic androstenone
[6] = Experiment 2, female rats, 4 μg synthetic androstenone
[7] = Experiment 12, 75 ng synthetic testosterone
[8] = Experiment 14, female rats, 150 ng synthetic testosterone

SMILES	first entry into baited response chamber vs control chamber [1, 3]	time spent in response chamber with stimulus vs control chamber [1, 3]	effect on female mice ([1]; Experiment 5, 4 μg synthetic androstenone vs 50 μl ether)	first entry into baited chamber vs control chamber [1, 4]	responses by female mice compared with testosterone [1, 4]	time spent in baited chamber vs control chamber [1, 4]	first entry into treatment trap box vs control trap box [2, 5]	time spent in quadrants associated with stimulus vs opposite control quadrants [2, 5]	attractive effect on male rats ([2]; Experiment 1, male rats, 4 μg synthetic androstenone on filter paper vs untreated filter paper)	first entry into treatment trap box vs control trap box [2, 6]	time spent in quadrants associated with treatment stimulus vs opposite control quadrants [2, 6]	attractive effect on female rats ([2]; Experiment 2, female rats, 4 μg synthetic androstenone on filter paper vs untreated filter paper)	first entry into baited chamber vs control chamber [1, 7]	preference in time spent for the treated chamber over control [1, 7]	time spent in baited chamber vs control chamber [1, 7]	effect on female mice ([1]; Experiment 12, 75 ng synthetic testosterone in 50 μl ether vs ether)	first entry into baited trap box vs control trap box [2, 8]	time spent in arena quadrant of baited trap box vs opposite control quadrant [2, 8]	attractant effect on female rats ([2]; Experiment 14, female rats, 150 ng synthetic testosterone in 50 μl ether vs ether)
C[C@]12CCC(=O)C[C@@H]1CC[C@@H]1[C@@H]2CC[C@]2(C)C=CC[C@@H]12 [androstenone, 5α-androst-16-en-3-one]	as often as	significantly more time	positive effect	as often as	much weaker	slightly more time	as often as	significantly less time	no observed attractive effect	significantly more often	significantly more time	very attractive effect							
C[C@]12CC[C@H]3[C@@H](CCC4=CC(=O)CC[C@@]43C)[C@@H]1CC[C@@H]2O [testosterone, (8R,9S,10R,13S,14S,17S)-17-hydroxy-10,13-dimethyl-1,2,6,7,8,9,11,12,14,15,16,17-dodecahydrocyclopenta[a]phenanthren-3-one, reference compound]													significantly more often	over threefold preference	significantly more time	very positive effect	significantly more often	significantly more time	very positive attractant effect
